Experimental data: US7098208B2, “Inhibitors of Akt activity” (Merck & Co., Inc., priority 2001, dated 2006)

System: PKC (mix of isoforms)
Assay: PKC Assay (counter screen)
Format: biochemical
Settings: myelin basic protein substrate; read-out: Counter screens IC50 (μM) PKC
Procedure: Each PKC assay consists of the following components:
Final assay concentrations were as follows: 0.25 mM EGTA, 0.4 mM CaCl, 20 mM Tris pH 7.5, 10 mM MgCl, 1 mM 2-mercaptoethanol, 0.32 mg/ml phosphatidylserine, 0.032 mg/ml diacylglycerol, 10 μM ^33P-ATP, 70 μg/ml MBP, 10 ng/ml PKC, 0.1 mg/ml BSA.
Assays are performed using 96 deep well assay plates. In each assay well 10 μl of solvent control or appropriate inhibitor dilution with 5 μl ^33P-ATP (components #5 and #3) were premixed. In a separate tube, a mixture containing equal volumes of components #1, #2, #4, and #6 was prepared. The assay reaction was initiated by adding 35 μL of the components #1, #2, #4, and #6 mixture to wells containing ^33P-ATP and inhibitor. The liquid in the assay wells was thoroughly mixed and the assay reactions incubated for 20 minutes at room temperature. The reactions were stopped by adding 100 mM EDTA (50 μl) and 100 mM sodium pyrophosphate (50 μl) and mixing. Phosphorylated MBP was collected on PVDF membranes in 96 well filter plates and quantitated by scintillation counting.

SMILES	IC50
CN(C)CC(C)(C)CNc1nn2c(-c3ccccc3)nnc2cc1C1CCC1 [Compound 1, N′-(7-Cyclobutyl-3-phenyl-[1,2,4]triazolo[4,3-b]pyridazin-6-yl)-2,2,N,N-tetramethyl-propane-1,3-diamine]	> 40 µM
CN(C)CC(C)(C)CNc1nn2c(-c3cc(F)cc(F)c3)nnc2cc1C1CCC1 [Compound 2, N′-(7-Cyclobutyl-3-(3,5-difluoro-phenyl)-[1,2,4]triazolo[4,3-b]pyridazin-6-yl)-2,2,N,N-tetramethyl-propane-1,3-diamine]	> 40 µM
CN(C)CC(C)(C)CNc1nn2c(-c3ccc(F)c(F)c3)nnc2cc1C1CCC1 [Compound 3, N′-(7-Cyclobutyl-3-(3,4-difluoro-phenyl)-[1,2,4]triazolo[4,3-b]pyridazin-6-yl)-2,2,N,N-tetramethyl-propane-1,3-diamine]	> 40 µM
CN(C)CC(C)(C)CNc1nn2c(-c3ccc(F)cc3)nnc2cc1C1CCC1 [Compound 4, N′-(7-Cyclobutyl-3-(4-fluoro-phenyl)-[1,2,4]triazolo[4,3-b]pyridazin-6-yl)-2,2,N,N-tetramethyl-propane-1,3-diamine]	> 40 µM
CN(C)CC(C)(C)CNc1nn2c(-c3cccc(F)c3)nnc2cc1C1CCC1 [Compound 5, N′-(7-Cyclobutyl-3-(3-fluoro-phenyl)-[1,2,4]triazolo[4,3-b]pyridazin-6-yl)-2,2,N,N-tetramethyl-propane-1,3-diamine]	> 40 µM
